Results on six compounds are retold here after patent US5512687A, “Compounds for inhibiting immune response” (Procept, Inc., priority 1994, dated 1996).

For series [1], the system named is human peripheral blood lymphocyte (PBL) proliferation. Format: cell-based.
The test system of the next series is Jurkat cell line. Put plainly: in vitro toxicity study, cytotoxicity (Jurkat cell). Format: cell-based.

Like-named read-outs stand apart in the source and are kept apart here.

Usually IC50 stands for the concentration that gives 50% inhibition. A higher IC50 goes with weaker potency. For the compound `Cn1cc[n+]([Ru-3]([n+]2ccn(C)c2)([n+]2ccn(C)c2)([n+]2ccn(C)c2)([n+]2ccn(C)c2)[n+]2ccn(C)c2)c1.F[P-](F)(F)(F)(F)F.F[P-](F)(F)(F)(F)F.F[P-](F)(F)(F)(F)F` [Ru(1-MeIm)6 !(PF6)3], the IC50 in series [1] was 0.19 ± 0.16 µg/mL. Moreover, in the series on Jurkat cell line, the “Cytotoxicity (Jurkat cell) IC50” value worked out at 115 µg/mL.
The corresponding values for `Cn1cc[n+]([Ru-4]([n+]2ccn(C)c2)([n+]2ccn(C)c2)([n+]2ccn(C)c2)([n+]2ccn(C)c2)[n+]2ccn(C)c2)c1.[Cl-].[Cl-]` [Ru(1-MeIm)6 !Cl2] are 0.052 ± 0.03 µg/mL and 2000 µg/mL.
The corresponding values for `Cn1cc[n+]([Ru-3]([n+]2ccn(C)c2)([n+]2ccn(C)c2)([n+]2ccn(C)c2)([n+]2ccn(C)c2)[n+]2ccn(C)c2)c1.[Cl-].[Cl-].[Cl-]` [Ru(1-MeIm)6 !Cl3] are 0.12 ± 0.1 µg/mL and over 300 µg/mL.
The corresponding values for `[Cl-].[Cl-].c1c[n+]([Ru-4]([n+]2cc[nH]c2)([n+]2cc[nH]c2)([n+]2cc[nH]c2)([n+]2cc[nH]c2)[n+]2cc[nH]c2)c[nH]1` [Ru(Im)6 !Cl2] are 0.0067 ± 0.003 µg/mL and 200 µg/mL.
The compound `[Cl-].[Cl-].[Cl-].c1c[n+]([Ru-3]([n+]2cc[nH]c2)([n+]2cc[nH]c2)([n+]2cc[nH]c2)([n+]2cc[nH]c2)[n+]2cc[nH]c2)c[nH]1` [Ru(Im)6 !Cl3] came in with an IC50 in series [1] of 0.005 ± 0.004 µg/mL. In addition, in the series with Jurkat cell line (values are extrapolated), the “Cytotoxicity (Jurkat cell) IC50” value is 530 µg/mL.
For Ru(4-MeIm)6 !Cl2, in that order: 0.09 ± 0.07 µg/mL and 1040 µg/mL.
